The source of these data is PubChem BioAssay (NCI).

Some test systems named below: BT-549 breast; HCC-2998 colon; HCT-15 colon; HT29 colon; MCF7 breast; MOLT-4 leukemia; OVCAR-4 ovarian; PC-3 prostate; RPMI-8226 leukemia; RXF 393 renal.
Common to all, as to experiment: growth of human tumour cells (NCI), 48 h

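48-hour exposure; five concentrations; linearly interpolated endpoints. Abbreviation: GI50, concentration required for 50% inhibition of growth. TGI denotes the concentration required for complete inhibition of growth.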

Take `CNC(=O)OCc1nc(SC)n(C)c1COC(=O)NC`: the TGI in the assay with BT-549 breast was 300 µM; with HCC-2998 colon it was 307 µM; with HCT-15 colon it was 410 µM; in the assay with HT29 colon it was 605 µM; in the assay on MCF7 breast, 622 µM; with MOLT-4 leukemia it was 142 µM. Moreover, the TGI was 281 µM in the assay on OVCAR-4 ovarian, 484 µM with PC-3 prostate, 736 µM in the assay with RPMI-8226 leukemia and 169 µM in the assay on RXF 393 renal.
For the molecule `COc1ccccc1C(=O)N(Cc1ccccc1)c1ccc(Cl)c(C(=O)OC(C)C)c1`, the TGI is over 100 µM with BT-549 breast; over 100 µM in the assay on HCC-2998 colon; over 100 µM in the assay on HCT-15 colon; over 74 µM in the assay on HT29 colon; over 100 µM with MCF7 breast; 66.3 µM with MOLT-4 leukemia. Moreover, the TGI is over 100 µM with OVCAR-4 ovarian, 75.3 µM with PC-3 prostate, 29 µM with RPMI-8226 leukemia and 62.1 µM in the assay with RXF 393 renal.
Take `Cc1ccc(OC(=O)N2C/C(=C\c3ccccc3)C(=O)/C(=C/c3ccccc3)C2)cc1`: the TGI in the assay with BT-549 breast is 88 µM; in the assay on HCC-2998 colon it was over 37 µM; in the assay on HCT-15 colon, over 100 µM; in the assay on HT29 colon, 35.6 µM; in the assay on MCF7 breast it was 56 µM; in the assay with MOLT-4 leukemia, 18.5 µM. Also, the TGI in the assay with OVCAR-4 ovarian is 32.2 µM; with PC-3 prostate it was over 100 µM; in the assay with RPMI-8226 leukemia it was 1.9 µM; in the assay with RXF 393 renal, 37.5 µM.
Take `OCCN(CO)CO`: the TGI in the assay on BT-549 breast, in the assay on HCC-2998 colon, in the assay on HCT-15 colon, with HT29 colon, with MCF7 breast and with OVCAR-4 ovarian was over 100 µM each time. The TGI in the assay with PC-3 prostate, in the assay on RPMI-8226 leukemia and in the assay on RXF 393 renal was over 100 µM in each case.
Turning to `CCc1ccc2c(c1)N(CCO)C1=C(C(=O)OC1)C2c1cc(OC)c(OC)c(OC)c1` (configuration not stated), the GI50 in the assay with BT-549 breast is 0.564 µM; in the assay with HCC-2998 colon, 0.327 µM; in the assay with HCT-15 colon, 0.425 µM; in the assay with HT29 colon it was 0.143 µM; with MCF7 breast, 0.209 µM; in the assay on MOLT-4 leukemia, 0.486 µM. Moreover, the GI50 in the assay on OVCAR-4 ovarian was 0.362 µM; with PC-3 prostate, 0.196 µM; in the assay with RPMI-8226 leukemia, 0.201 µM. For the same molecule, the TGI in the assay with BT-549 breast is over 15.7 µM; in the assay with HCC-2998 colon it was over 10.3 µM; in the assay on HCT-15 colon, over 50 µM; in the assay on HT29 colon it was 0.447 µM; in the assay on MCF7 breast, over 50 µM; in the assay with MOLT-4 leukemia, over 50 µM. Besides, the TGI was over 50 µM in the assay with OVCAR-4 ovarian, over 50 µM in the assay with PC-3 prostate and 42 µM in the assay with RPMI-8226 leukemia.
`CS(=O)(=O)Nc1cc(-c2ccc3ncnc(Nc4cccc(Cl)c4)c3c2)cnc1Cl`: the GI50 in the assay on BT-549 breast is 0.272 µM; with HCC-2998 colon, 0.246 µM; in the assay with HCT-15 colon, 0.296 µM; in the assay on HT29 colon it was 0.319 µM; in the assay with MCF7 breast, 0.215 µM; in the assay on MOLT-4 leukemia, 0.235 µM. In addition, the GI50 with OVCAR-4 ovarian was 0.828 µM; in the assay on PC-3 prostate it was 0.288 µM; with RPMI-8226 leukemia, 0.378 µM. Also, the TGI was 3.28 µM with BT-549 breast; 1.79 µM with HCC-2998 colon; 2.72 µM in the assay with HCT-15 colon; 5.84 µM with HT29 colon; 13.6 µM in the assay with MCF7 breast; 1.17 µM in the assay on MOLT-4 leukemia. For the same molecule, the TGI was 9.22 µM in the assay on OVCAR-4 ovarian, 11.5 µM in the assay on PC-3 prostate and 2.36 µM with RPMI-8226 leukemia.
As to `COc1ccc(C)cc1NC(=S)C#N`, the TGI in the assay on BT-549 breast, in the assay with HCC-2998 colon, in the assay with HCT-15 colon, in the assay with HT29 colon, with MCF7 breast and in the assay with PC-3 prostate was over 100 µM each time. The TGI with RPMI-8226 leukemia and with RXF 393 renal was over 100 µM throughout.
Regarding `COc1cc(-c2nn(-c3cccc(NC(=O)CCNc4ccc(N5CCOCC5)cc4)c3)cc2-c2ccncc2)ccc1Cl`, the GI50 was 3.41 µM in the assay with BT-549 breast; 4.77 µM in the assay with HCC-2998 colon; 2.35 µM in the assay on HCT-15 colon; 2.84 µM with HT29 colon; 2.47 µM with MCF7 breast; 1.6 µM in the assay with MOLT-4 leukemia. Moreover, the GI50 was 2.6 µM in the assay with OVCAR-4 ovarian, 2.8 µM in the assay on PC-3 prostate and 2.05 µM in the assay on RXF 393 renal. Further, the TGI is 31 µM in the assay on BT-549 breast; over 100 µM in the assay with HCC-2998 colon; over 100 µM in the assay on HCT-15 colon; 33.4 µM with HT29 colon; 11.5 µM in the assay with MCF7 breast; 6.98 µM in the assay with MOLT-4 leukemia. The results for the TGI in the assay on OVCAR-4 ovarian, in the assay on PC-3 prostate and in the assay on RXF 393 renal were 16.6 µM, 31.4 µM and 8.08 µM, respectively.
For `O=C1Nc2ccc3c(c2/C1=C\c1cc2c(cc1Br)OCO2)OCO3`, the GI50 in the assay on BT-549 breast is 0.71 µM; in the assay with HCC-2998 colon it was 1.65 µM; in the assay with HCT-15 colon it was 0.515 µM; in the assay with MCF7 breast it was 0.351 µM; in the assay on MOLT-4 leukemia it was 0.489 µM; with OVCAR-4 ovarian, 1.7 µM. The GI50 is 0.338 µM in the assay on PC-3 prostate, 0.27 µM in the assay with RPMI-8226 leukemia and 0.901 µM in the assay with RXF 393 renal. In addition, the TGI was 39.5 µM with BT-549 breast; over 100 µM with HCC-2998 colon; over 100 µM in the assay on HCT-15 colon; 2.87 µM in the assay with MCF7 breast; over 100 µM in the assay with MOLT-4 leukemia; 5.14 µM in the assay on OVCAR-4 ovarian. Further, the TGI with PC-3 prostate was 2.8 µM; in the assay with RPMI-8226 leukemia, 0.801 µM; in the assay with RXF 393 renal, 3.78 µM.
In the case of `COc1cc(-c2nn(-c3cccc(NC(=O)CCN4CCN(c5ccccc5)CC4)c3)cc2-c2ccncc2)ccc1Cl`, the GI50 is 3.17 µM with BT-549 breast; 3.56 µM in the assay on HCC-2998 colon; 2.62 µM in the assay with HCT-15 colon; 2.66 µM in the assay on HT29 colon; 2.55 µM in the assay on MCF7 breast; 2.89 µM with MOLT-4 leukemia. Also, the figures for the GI50 with OVCAR-4 ovarian, with PC-3 prostate and in the assay with RXF 393 renal were 3.03 µM, 3.1 µM and 1.91 µM, respectively. In addition, the TGI with BT-549 breast, in the assay on HCC-2998 colon, with HCT-15 colon, in the assay with HT29 colon, with MCF7 breast and in the assay on MOLT-4 leukemia was over 100 µM throughout. Besides, the results for the TGI in the assay with OVCAR-4 ovarian, with PC-3 prostate and in the assay with RXF 393 renal were over 100 µM, over 100 µM and 5.18 µM, respectively.
